Test results published in patent US20160039778A1, “TRPV-1 RECEPTOR ANTAGONIST COMPOUND DERIVED FROM 1,3,4-THIADIAZOLE ALKYLAMIDES AND CHALCONES” (UNIVERSIDAD DE CONCEPCION, priority 2012, published 2016).
Read-outs that look alike come from different tables or passages of the source.

Legend:
rat TRPV-1 receptor = biological target: T1, rat TRPV-1 receptor (Rattus norvegicus, UniProt O35433); assay: Dose response curve, temperature activation of the TRPV-1 receptor in transfected HEK-293T cells; format: cell-based; conditions: relative fluorescence at 50° C., HEK-293T cells transfected with rat TRPV-1, two independent experiments, ± standard deviation
T1 construct: expressed in transfected cells; host or cells: HEK-293T
Procedure: The synthesized compounds were evaluated in HEK-293T cell cultures transfected with cDNA from rat TRPV receptors. […] The influx of calcium was measured with a fluorescent probe, Fluo 4-AM, as in the presence of an antagonist the calcium influx is blocked by the inactivation of the TRPV-1 receptor and cellular fluorescence decreases.
The HEK-293T cells were cultured in a DMEM medium supplemented with 5% fetal bovine serum, 50 U/ml penicillin, […] streptomycin and 2 mM L-glutamine. The cultures were kept at 37°, in a 5% CO2 environment, with 80% relative humidity.
The HEK-293T cells were transfected with rat TPRV-1 pcDNA3, 97 μOpti-MEM and 3 μL of Lipofectamine 2000 were added to a reaction tube and to a second tube 1 μg of DNA and one volume of Opti-MEM were added to complete 100 μL. Both tubes were incubated for 10 minutes, after which they were mixed and incubated for another 15 minutes.
After 48 hours of transfection the cells were treated with 200 μL of trypsin, left to incubate for 5 minutes at room temperature, then gently pipetted and transposed to a 15 ml tube. After being centrifuged at a speed of 6,000 rpm for 10 minutes, the cells were re-suspended in 1 ml of Ringer medium, adding 1 μl of Fluo-4AM 1000×, and incubated at 37° C. for half an hour. After being centrifuged and washed with pH 7.34 PBS 1× to remove the excess probe the cell pellet was re-suspended in 1.5 ml of Ringer medium.
Once the rat TRPV-1 receptor had been transfected, Fluo-4 AM charged HEK 293T cells were plated out in 48-well plates at a cellular density of 50,000 cells per well, with a transfection percentage of 40-50%. Subsequently 2 μL/well of each assayed compound were added and the cells left to incubate at room temperature for 5-10 minutes before the execution of the experiment by temperature. The fluorescence measurements were then read on a real time PCR system that allows an increment of 1° C. every 35 seconds from 36° C. to 55° C. for compounds and from 22-56° C. for transfected cells in absence of compounds. Reading of the fluorescence measurement was done using a FAM filter ([…]). […] The values were then normalized, the data being expressed as relative fluorescence, which is the ratio between the fluorescence variation and the base line.
An assay was carried out on temperature activation of the TRPV-1 receptor by incubating the transfected and Fluo-4AM charged HEK-293T cells in the presence of different concentrations of each compound assayed: 1 μM; 0.1 μM; 0.01 μM; 0.003 μM; 0.001μM; 0.0003 μM, 0.0001 μM y 0.00001 μM. The relative fluorescence data obtained at 50° C. was then used to calculate the fluorescence ratio, which is presented as normalized in relation to the relative fluorescence at initial concentration. In this way, the fluorescence ratios obtained through two independent experiments were averaged and expressed with the respective standard deviation.

TRPV1 receptor = conditions: cited from earlier work; for selectivity for the TRPV-1 receptor: literature statement
[1] = literature statement; cited from earlier work
[2] = literature statement; cited from earlier work; remark: listed apart in the source
[3] = literature statement; cited from earlier work; remark: listed apart in the source
[4] = read-out: half maximal inhibitory concentration (IC50), TRPV1 antagonist
[5] = literature value, read-out: half maximal inhibitory concentration (IC50), TRPV1 antagonist
[6] = 1,3,4-thiadiazole alkylamide derivatives

T1 sequence (O35433 whole entry): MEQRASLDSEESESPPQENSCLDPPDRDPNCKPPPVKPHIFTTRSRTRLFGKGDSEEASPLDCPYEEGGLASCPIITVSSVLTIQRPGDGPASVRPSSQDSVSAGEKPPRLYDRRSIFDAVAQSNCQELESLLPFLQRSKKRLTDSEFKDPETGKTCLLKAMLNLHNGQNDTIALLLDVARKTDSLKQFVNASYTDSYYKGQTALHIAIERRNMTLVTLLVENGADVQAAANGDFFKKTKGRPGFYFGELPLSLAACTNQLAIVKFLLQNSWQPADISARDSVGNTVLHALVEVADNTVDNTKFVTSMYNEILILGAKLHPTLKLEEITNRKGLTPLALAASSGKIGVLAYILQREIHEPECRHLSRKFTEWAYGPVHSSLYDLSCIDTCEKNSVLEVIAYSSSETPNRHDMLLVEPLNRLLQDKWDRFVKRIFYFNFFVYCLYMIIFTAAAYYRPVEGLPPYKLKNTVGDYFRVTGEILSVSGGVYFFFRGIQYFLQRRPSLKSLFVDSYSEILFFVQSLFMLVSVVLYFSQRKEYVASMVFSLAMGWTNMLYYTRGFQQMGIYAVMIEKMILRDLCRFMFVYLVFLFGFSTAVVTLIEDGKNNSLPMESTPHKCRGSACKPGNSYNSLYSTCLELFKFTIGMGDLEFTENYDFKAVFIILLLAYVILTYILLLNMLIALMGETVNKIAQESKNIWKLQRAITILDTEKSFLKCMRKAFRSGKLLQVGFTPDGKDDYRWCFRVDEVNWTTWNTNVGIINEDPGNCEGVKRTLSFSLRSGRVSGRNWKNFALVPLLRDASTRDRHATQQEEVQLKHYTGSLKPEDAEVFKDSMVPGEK

## COc1cc(C=C(Cl)C(=O)c2ccccc2)ccc1O (stereo in doubt) [q, (2E)-chloro-3-(4-hydroxy-3-methoxyphenyl)-1-phenyl prop-2-en-1-one]
Rat TRPV-1 receptor; chalcone derivatives
  IC50: 0.257 ± 0.016 nM

## CCCCCCCCC(=O)NCc1cc(I)c(O)c(OC)c1 [5-iodononivamide]
TRPV1 receptor; [4]
  IC50: 10 nM

## C=C(C)[C@]12C[C@@H](C)[C@@]34O[C@](Cc5ccccc5)(O[C@@H]1[C@@H]3C=C(COC(=O)Cc1cc(I)c(O)c(OC)c1)C[C@]1(O)C(=O)C(C)=C[C@@H]41)O2 [5-iodoresiniferatoxin]
TRPV1 receptor; [5]
  IC50: 0.4 nM

## CCCCCCCCC(=O)NCc1cc(OC)c(O)cc1I [6-iodononivamide]
TRPV1 receptor; [4]
  IC50: 126 nM

## CC(C)(C)c1ccc(/C=C/C(=O)Nc2ccc3c(c2)OCCO3)cc1 [(E)-3-(4-t-butylphenyl)-N-(2,3-dihydrobenzo[b][1,4]dioxin-6-yl)acrylamide]
TRPV1 receptor; literature value, read-out: antagonistic activity IC50
  IC50: 79 nM

## CC(C)(C)c1ccc(NC(=O)N2CCN(c3ncccc3Cl)CC2)cc1 [BCTC, N-(4-tertiarybutylphenyl)-4-(3-cholorphyridin-2-yl)tetrahydropyrazine-1(2H)-carbox-amide]
TRPV1 receptor; depending on the type of species (rat, mouse or human) of the TRPV1 receptor, literature value, read-out: half maximal inhibitory concentration (IC50), TRPV1 antagonist
  IC50: 2 to 6 nM
[1]
  aqueous solubility: poor
[2]
  metabolic stability: low
[3]
  half-life: short
  oral bioavailability: moderate

## CCCCCCCCC(=O)Nc1nnc(-c2cc(I)c(O)c(OC)c2)s1 [a, N-[5-(4-hydroxy-5-methoxy-3-iodophenyl)-1,3,4-thiadiazole-2-yl]-nonamide]
Rat TRPV-1 receptor; [6]
  IC50: 0.046 ± 0.004 nM

## CCCCCCCCC(=O)Nc1nnc(-c2ccc(O)c(OC)c2)s1 [b, N-[5-(4-hydroxy-3-methoxyphenyl)-1,3,4-thiadiazole-2-yl]-nonamide]
Rat TRPV-1 receptor; [6]
  IC50: 0.145 ± 0.051 nM

## Oc1cc2c(cc1O)CN(C(=S)NCCc1ccc(Cl)cc1)CCC2 [capsazepine]
TRPV1 receptor
  selectivity for the TRPV-1 receptor: low selectivity
TRPV1 receptor; [5]
  IC50: 56.2 nM
[2]
  metabolic stability: metabolically unstable

## CCCCCCCC(=O)Nc1nnc(-c2ccc(O)c(OC)c2)s1 [d, N-[5-(4-hydroxy-3-methoxyfenil)-1,3,4-thiadiazole-2-yl]-octanamide]
Rat TRPV-1 receptor; [6]
  IC50: 1.09 ± 0.497 nM

## CCCCCCC(=O)Nc1nnc(-c2cc(I)c(O)c(OC)c2)s1 [e, N-[5-(4-hydroxy-5-methoxy-3-iodophenyl)-1,3,4-thiadiazole-2-yl]heptanamide]
Rat TRPV-1 receptor; [6]
  IC50: 1.263 ± 0.009 nM

## CCCCCC(=O)Nc1nnc(-c2ccc(O)c(OC)c2)s1 [h, N-[5-(4-hydroxy-3-methoxyfenil)-1,3,4-thiadiazole-2-yl]-hexanamide]
Rat TRPV-1 receptor; [6]
  IC50: 0.298 ± 0.026 nM

## O=C(/C=C/c1ccccc1)c1ccc(Br)cc1 [i]
Rat TRPV-1 receptor; chalcone derivatives
  IC50: 1.02 ± 0.206 nM

## COc1ccc(/C=C/C(=O)c2ccc(Br)cc2)cc1 [j, (2E)-1-(4-bromophenyl)-3-(4-methoxyphenyl) prop-2-en-1-one]
Rat TRPV-1 receptor; chalcone derivatives
  IC50: 3.89 ± 0.225 nM

## [La] [lanthanum]
TRPV1 receptor
  selectivity for the TRPV-1 receptor: lack selectivity
TRPV1 receptor; non-competitive antagonist, blocks the ionic channel, literature value
  concentration at which activity is presented: ≥ 100 µM

## O=C(/C=C/c1ccccc1)/C=C/c1ccccc1 [m, (1E, 4E)-1,5-diphenyl penta-1,4-dien-3-one]
Rat TRPV-1 receptor; chalcone derivatives
  IC50: 7.55 ± 1.9 nM

## O=C(/C=C/c1ccc(O)cc1)/C=C/c1ccc(O)cc1 [n, (1E, 4E)-1,5-(4-hydroxyphenyl) penta-1,4-dien-3-one]
Rat TRPV-1 receptor; chalcone derivatives
  IC50: 0.184 ± 0.023 nM

## C=C(C)[C@]12C[C@@H](C)[C@@]34O[C@](Cc5ccccc5)(O[C@@H]1[C@@H]3C=C(COC(=O)Cc1ccc(O)c(OC)c1)C[C@]1(O)C(=O)C(C)=C[C@@H]41)O2 [resiniferatoxin]
TRPV1 receptor
  agonist potency relative to capsaicin: 10 times

## N.N.N.N.N.N.N.N.N.N.N.N.N.N.[Cl-].[Cl-].[Cl-].[Cl-].[Cl-].[Cl-].[O-2].[O-2].[Ru+3].[Ru+3].[Ru+4] [ruthenium red]
TRPV1 receptor
  selectivity for the TRPV-1 receptor: lack selectivity
TRPV1 receptor; non-competitive antagonist, blocks the ionic channel, literature value, read-out: antagonistic activity IC50
  IC50: 170 nM
